molecular target: T1, p38 (Homo sapiens, UniProt Q16539); experiment: Protein Kinase Assay (33P incorporation from γ-[33P]ATP into GST-ATF-2 substrate); assay type: biochemical; details: compound at 0.5 μM (noted beside the value in Table 1)
T1 construct: made in house
Method: Human non-activated p38 kinase (MW=43 kDa) was purified according to the protocol described herein. Chemicals were purchased from Calbiochem. Fluorescence characterizations were conducted using a Cary Eclipse (Varian Analytical Instruments, Walnut Creek, Calif.). Research-grade CM5 sensor chips and coupling reagents (N-ethyl-N′-dimethylaminopropylcarbodiimide (EDC) N-hydroxysuccinimide (NHS), and 1 M ethanolamine HCl, pH 8.5) were purchased from Biacore AB (Uppsala, Sweden). The biosensor analyses were conducted using a Biacore 3000 SPR instrument. The kinetic analyses were carried on a Molecular Devices spectrophotometer (Molecular Devices Corporation, CA, USA).
Protein Kinase Assay. The protein kinase activity of p38 was determined by measuring the incorporation of ^33P from γ-[^33P]ATP into the GST-ATF-2 substrate, amino acids 19-96 (Upstate, NY USA). […] Compounds were preincubated with 10 nM p38 for 20 min at 30° C.; the reactions were initiated by the addition of GST-ATF2 and ATP and incubated for 70 min at 30° C. before being stopped by the addition of 10 μL of 600 mM phosphoric acid. The phosphorylated substrate was captured on phosphocellulose 96-well plate (Millipore MAPHNOB 10), washed with 100 mM phosphoric acid, and counted in a BeckmenCoulter LS6500 liquid scintillation counter.

T1 sequence (Q16539 whole entry): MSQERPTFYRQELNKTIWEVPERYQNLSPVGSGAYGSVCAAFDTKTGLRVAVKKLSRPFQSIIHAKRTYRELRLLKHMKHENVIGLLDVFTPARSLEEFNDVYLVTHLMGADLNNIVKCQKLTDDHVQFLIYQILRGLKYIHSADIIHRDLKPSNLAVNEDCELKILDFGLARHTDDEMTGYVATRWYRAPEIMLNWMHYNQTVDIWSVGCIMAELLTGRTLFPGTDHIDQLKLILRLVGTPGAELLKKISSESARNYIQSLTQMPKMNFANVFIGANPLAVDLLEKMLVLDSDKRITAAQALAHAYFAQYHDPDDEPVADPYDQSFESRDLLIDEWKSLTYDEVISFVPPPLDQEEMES

SMILES | inhibition at 0.5 µM [%]
CC(C)(C)c1cc(NC(=O)Nc2ccc3ccccc3c2)c(N2CCS(=O)(=O)CC2)s1 [Example 27, 1-[5-tert-butyl-2-(1,1-dioxo-1λ^6-thiomorpholin-4-yl)thiophen-3-yl]-3-naphthalen-2-ylurea] | 51 to 76

same assay, conditions: compound at 3 μM (noted beside the value in Table 1); read-out: Protein Kinase (% Inhibition)

SMILES | inhibition at 3 µM [%]
CC(C)(C)c1cc(C(=O)N2CCS(=O)(=O)CC2)c(NC(=O)Nc2ccc(Cl)c3ccccc23)s1 [Example 41, 1-[5-tert-butyl-3-(1,1-dioxo-1λ^6-thiomorpholine-4-carbonyl)thiophen-2-yl]-3-(4-chloronaphthalen-1-yl)urea] | 76 to 100
CC(C)(C)c1cc(C(=O)N2CCNS(=O)(=O)CC2)c(NC(=O)Nc2ccc(Cl)cc2)s1 [Example 39, 1-[5-tert-butyl-3-(1,1-dioxo-1λ^6-[1,2,5]thiadiazepane-5-carbonyl)thiophen-2-yl]-3-(4-chlorophenyl)urea] | 76 to 100

same assay, conditions: compound at 3 μM; read-out: Protein Kinase (% Inhibition at 3 μM)

SMILES | inhibition at 3 µM [%]
CC(C)(C)c1cc(C(=O)N2CCS(=O)(=O)CC2)c(NC(=O)Nc2ccc(C#N)cc2Cl)s1 [Example 76, 1-[5-tert-butyl-3-(1,1-dioxo-1λ^6-thiomorpholine-4-carbonyl)thiophen-2-yl]-3-(2-chloro-4-cyanophenyl)urea] | 76 to 100
COc1ccc(NC(=O)Nc2sc(C(C)(C)C)cc2C(=O)N2CCNS(=O)(=O)CC2)cc1Cl [Example 95, 1-[5-tert-Butyl-3-(1,1-dioxo-1λ^6-[1,2,5]thiadiazepane-5-carbonyl)thiophen-2-yl]-3-(3-chloro-4-methoxyphenyl)urea] | 76 to 100
CC(C)(C)c1cc(C(=O)N2CCS(=O)(=O)CC2)c(NC(=O)Nc2ccc(C#N)cc2C(F)(F)F)s1 [Example 84, 1-[5-tert-butyl-3-(1,1-dioxo-1λ^6-thiomorpholine-4-carbonyl)thiophen-2-yl]-3-(4-cyano-2-trifluoromethylphenyl)urea] | 76 to 100
CC(C)(C)c1cc(C(=O)Nc2cccnc2)c(NC(=O)Nc2ccc(Cl)cc2)s1 [Example 75, 1-(3-(Pyridin-3-ylcarbamoyl)-5-tert-butylthiophen-2-yl)-3-(4-chlorophenyl)urea] | 76 to 100
CC(C)(C)c1cc(C(=O)N2CCNC(=O)CC2)c(NC(=O)Nc2ccc3c(c2)OCO3)s1 [Example 73, 1-Benzo[1,3]dioxol-5-yl-3-[5-tert-butyl-3-(5-oxo-[1,4]diazepane-1-carbonyl)-thiophen-2-yl]urea] | 76 to 100
CC(C)(C)c1cc(C(=O)N2CCNS(=O)(=O)CC2)c(NC(=O)Nc2ccc(C#N)cc2Cl)s1 [Example 92, 1-[5-tert-Butyl-3-(1,1-dioxo-1λ^6-[1,2,5]thiadiazepane-5-carbonyl)thiophen-2-yl]-3-(4-cyano-2-chlorophenyl)urea] | 76 to 100
CC(C)(C)c1cc(C(=O)N2CCNS(=O)(=O)CC2)c(NC(=O)Nc2ccc(Cl)c(Cl)c2)s1 [Example 96, 1-[5-tert-Butyl-3-(1,1-dioxo-1λ^6-[1,2,5]thiadiazepane-5-carbonyl)thiophen-2-yl]-3-(3,4-dichlorophenyl)urea] | 76 to 100
CC(C)(C)c1nc(C(=O)N2CCNS(=O)(=O)CC2)c(NC(=O)Nc2cccc3ccccc23)s1 [Example 80, 1-[2-tert-butyl-4-(1,1-dioxo-1λ^6-[1,2,5]thiadiazepane-5-carbonyl)thiazol-5-yl]-3-naphthalen-1-ylurea] | 76 to 100
COC(=O)CC1C(=O)NCCN1C(=O)c1cc(C(C)(C)C)sc1NC(=O)Nc1cccc2ccccc12 (stereo not shown) [Example 88, {1-[5-tert-butyl-2-(3-naphthalen-1-yl-ureido)thiophene-3-carbonyl]-3-oxo-piperazin-2-yl}-acetic acid methyl ester] | 76 to 100
CC(C)(C)c1cc(C(=O)N2CCS(=O)(=O)CC2)c(NC(=O)Nc2cccc(Cl)c2Cl)s1 [Example 58, 1-[5-tert-butyl-3-(1,1-dioxo-1λ^6-thiomorpholine-4-carbonyl)thiophen-2-yl]-3-(2,3-dichlorophenyl)urea] | 76 to 100
CC(C)(C)c1cc(C(=O)NCCS(C)(=O)=O)c(NC(=O)Nc2cccc3ccccc23)s1 [Example 45, 1-(3-(2-(Methylsulfonyl)ethylcarbamoyl)-5-tert-butylthiophen-2-yl)-3-(naphthalen-1-yl)urea] | 76 to 100
CC(C)(C)c1cc(C(=O)N2CCNC(=O)CC2)c(NC(=O)Nc2ccc(Cl)cc2)s1 [Example 46, 1-[5-tert-butyl-3-(5-oxo-[1,4]diazepane-1-carbonyl)thiophen-2-yl]-3-(4-chloro-phenyl)urea] | 76 to 100
CC(C)(C)c1cc(C(=O)N2CCNC(=O)CC2)c(NC(=O)Nc2ccc(C#N)cc2Cl)s1 [Example 90, 1-[5-tert-Butyl-3-(5-oxo-[1,4]diazepane-1-carbonyl)thiophen-2-yl]-3-(2-chloro-4-cyanophenyl)urea] | 76 to 100
Cn1ccc(NC(=O)Nc2sc(C(C)(C)C)cc2C(=O)N2CCS(=O)(=O)CC2)n1 [Example 69, 1-[5-tert-butyl-3-(1,1-dioxo-1λ^6-thiomorpholine-4-carbonyl)thiophen-2-yl]-3-(1-methyl-1H-pyrazol-3-yl)urea] | 0 to 25
CC(C)(C)c1cc(C(=O)N2CCS(=O)(=O)CC2)c(NC(=O)Nc2c[nH]c3ccccc23)s1 [Example 49, 1-[5-tert-butyl-3-(1,1-dioxo-1λ^6-thiomorpholine-4-carbonyl)thiophen-2-yl]-3-(1H-indol-3-yl)urea] | 51 to 75

same assay, conditions: compound at 10 μM

SMILES | inhibition at 10 µM [%]
CC(C)(C)c1cc(NC(=O)Nc2cccc3ccccc23)n(C(=O)N2CCS(=O)(=O)CC2)n1 [Example 21, 1-[5-tert-butyl-2-(1,1-dioxo-1λ^6-thiomorpholine-4-carbonyl)-2H-pyrazol-3-yl]-3-naphthalen-1-ylurea] | 76 to 100
CC(C)(C)c1cc(NC(=O)Nc2ccc(Cl)cc2)c(CN2CCS(=O)(=O)CC2)s1 [Example 15, 1-[5-tert-butyl-2-(1,1-dioxo-1λ^6-thiomorpholin-4-ylmethyl)thiophen-3-yl]-3-(4-chlorophenyl)urea] | 51 to 75
CC(C)(C)c1cc(NC(=O)Nc2ccc3ccccc3c2)c(CN2CCS(=O)(=O)CC2)s1 [Example 13, 1-[5-tert-butyl-2-(1,1-dioxo-1λ^6-thiomorpholin-4-ylmethyl)thiophen-3-yl]-3-naphthalen-2-ylurea] | 26 to 50
CC(C)(C)c1cc(C(=O)N2CCNC(=O)C2)c(NC(=O)Nc2cccc3ccccc23)s1 [Example 35, 1-[5-tert-butyl-3-(3-oxopiperazine-1-carbonyl)thiophen-2-yl]-3-naphthalen-1-ylurea] | 51 to 75
CC(C)(C)c1cc(C(=O)N2CCS(=O)(=O)CC2)c(NC(=O)Nc2ccc3ccccc3c2)s1 [Example 4, 1-[5-tert-butyl-3-(1,1-dioxo-1λ^6-thiomorpholine-4-carbonyl)thiophen-2-yl]-3-naphthalen-2-ylurea] | 76 to 100
CC(C)(C)c1cc(NC(=O)Nc2cccc3ccccc23)c(CN2CCS(=O)(=O)CC2)s1 [Example 14, 1-[5-tert-butyl-2-(1,1-dioxo-1λ^6-thiomorpholin-4-ylmethyl)thiophen-3-yl]-3-naphthalen-1-ylurea] | 0 to 25
CC(C)(C)c1cc(C(=O)N2CCS(=O)(=O)CC2)c(NC(=O)Nc2ccc(O)c3ccccc23)s1 [Example 34, 1-[5-tert-butyl-3-(1,1-dioxo-1λ^6-thiomorpholine-4-carbonyl)thiophen-2-yl]-3-(4-hydroxynaphthalen-1-yl)urea] | 76 to 100

— patent US7741479B2, “Urea inhibitors of MAP kinases” (Locus Pharmaceuticals, Inc., priority 2004, dated 2010)
